27 compounds from PubChem BioAssay (NCI) can be followed below.

Common to all, as to test: growth of human tumour cells (NCI), 48 h
The subject of assay [1] is COLO 205 colon.
For assay [2], the system named is HL-60(TB) leukemia.
Assay [3] relates to HOP-62 NSCLC.
The test system of assay [4] is MALME-3M melanoma.
Assay [5] relates to OVCAR-3 ovarian.
The test system of assay [6] is OVCAR-8 ovarian.
Assay [7] relates to SK-MEL-5 melanoma.
Assay [8] concerns UACC-62 melanoma.
Assay [9] relates to UACC-257 melanoma.

The structures appear in SMILES notation.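 Where inhibition never reached the appropriate level, the endpoint shown equals the highest concentration tested. Otherwise, values were interpolated linearly from a five-concentration, 48-hour dose response in 96-well plates. Here, GI50 denotes the concentration required for 50% inhibition of growth. TGI is the concentration that stops growth completely.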

With `CC1(C)CC2CC(C)(CN2c2ncnc3ccc(Br)cc23)C1` (configuration not stated), the GI50 in [1] was 15.4 µM; in assay [2], 1.38 µM; in assay [3], 12.9 µM; in [4], 0.195 µM; in assay [5], 2.72 µM; in [6], 12.3 µM. Further, the values for the GI50 in assay [7] and in [8] were 8.88 µM and 5.76 µM, respectively. The TGI in [1] is 29.8 µM; in assay [2] it was 3.48 µM; in assay [3], 25.6 µM; in assay [4], 11.6 µM; in [5], 13.1 µM; in [6] it was 25 µM. Also, the TGI in assay [7] came to 21.6 µM; in assay [8], 19.5 µM.
For the compound `CCOC(=O)c1c(C(F)(F)F)oc2c1ccc1nc3nonc3nc12`, the TGI in assay [1] was 55.1 µM; in assay [2], 32.5 µM; in assay [3] it was 18.9 µM; in assay [4], 32 µM; in assay [5] it was 30.4 µM; in assay [6], 30.4 µM. Also, the TGI was 26.7 µM in assay [7], 27.9 µM in assay [9] and 29.1 µM in [8].
Regarding `O=C(/C=C/c1ccc(Cl)c(Cl)c1)C1CCC(Cl)CC1` (configuration not stated), the TGI in assay [1] was 50.3 µM; in assay [3], greater than 100 µM; in [4], 41.1 µM; in assay [5] it was 28.4 µM; in assay [6], 38.5 µM; in assay [7], 33.4 µM. The TGI was determined as 35.1 µM in [9] and 31.2 µM in assay [8].
With `CC(C)NC(=O)O/N=C1\CCC2[C@@H]3CC=C4C[C@@H](OC(=O)NC(C)C)CC[C@]4(C)C3CC[C@]12C` (some centres not stated), the TGI in [1] was 1.29 µM; in assay [2] it was 5.37 µM; in assay [3] it was greater than 34 µM; in [4] it was 0.983 µM; in assay [5] it was 3.6 µM; in assay [6], 3.75 µM. For the same compound, the values for the TGI in assay [9] and in assay [8] were 2.4 µM and 3.18 µM, respectively.
In the case of `O=C1c2ccccc2C(=O)c2sc(Nc3ccc(Cl)c(Cl)c3)nc21`, the TGI in assay [1] was 15.4 µM; in [2], 1.18 µM; in assay [3], 21.3 µM; in assay [4], 9.47 µM; in [5], 6.3 µM; in assay [6], 8.02 µM. Moreover, the TGI was found to be 5.83 µM in [7], 8.63 µM in [9] and 7.94 µM in assay [8].
`O=C1CCC(=O)C(C(=O)CCC(=O)Nc2cccc(Cl)c2)C1` (configuration not stated): the TGI in assay [1], in assay [2], in assay [3], in assay [4], in [5] and in assay [6] was greater than 100 µM throughout. Besides, the TGI in [7], in assay [9] and in assay [8] was greater than 100 µM each time.
Turning to `OC1C2C=CCC1CCC2` (configuration not stated), the TGI in assay [1], in assay [2], in [3], in assay [4], in assay [5] and in [6] was greater than 100 µM throughout. Besides, the TGI in [7], in assay [9] and in [8] was greater than 100 µM each time.
Take `COC(=O)C(=O)C1CCCCC(C2=NC3NN=C(N)N3C2=O)C1=O` (configuration not stated): the TGI in assay [1], in assay [2], in assay [3], in assay [4], in assay [5] and in [6] was greater than 100 µM each time. Besides, the TGI in assay [7], in assay [9] and in assay [8] was greater than 100 µM in each case.
For `O=C1C2Nc3ccccc3SC2C(=O)N1c1cccc([N+](=O)[O-])c1` (configuration not stated), the TGI in [1], in [2], in [3], in assay [4], in [5] and in assay [6] was greater than 100 µM each time. Further, the TGI in assay [7], in [9] and in assay [8] was greater than 100 µM throughout.
Consider `C=C1CC(C/C=C(\C)CC2CC(=C)C(=O)O2)OC1=O` (configuration not stated), for which the TGI in assay [1], in assay [2], in assay [3], in assay [4], in assay [5] and in assay [6] was greater than 100 µM throughout. Moreover, the TGI in [7], in assay [9] and in [8] was greater than 100 µM in each case.
Turning to `Cc1cccc(N=C2NC(=O)C(CC(=O)Nc3ccc(Cl)cc3C)S2)c1` (configuration not stated), the TGI in assay [1], in [2], in [3], in assay [4], in assay [5] and in assay [6] was greater than 100 µM throughout. In addition, the TGI in assay [7], in [9] and in assay [8] was greater than 100 µM in each case.
Regarding `CC(C)(C)C(=O)[CH-]C(=O)C(F)(F)C(F)(F)C(F)(F)F.CC(C)(C)C(=O)[CH-]C(=O)C(F)(F)C(F)(F)C(F)(F)F.[O-]CC1OC(O)C(O)C(O)C1O.[O-]CC1OC(O)C(O)C(O)C1O.[Ti+4]`, the TGI in assay [1], in assay [2], in [3], in assay [4], in assay [5] and in assay [6] was greater than 100 µM throughout. In addition, the TGI in [7], in [9] and in assay [8] was greater than 100 µM in each case.
As to `O=c1[nH]c2c(O)cccc2c2cc3c(c(O)c12)OCO3`, the TGI is 34.5 µM in assay [1]; 31.1 µM in assay [2]; 61.8 µM in [3]; 56.4 µM in [4]; 45.2 µM in assay [5]; greater than 100 µM in assay [6]. Further, the TGI in assay [7] was greater than 100 µM; in assay [9] it was 47.6 µM; in assay [8] it was 71.3 µM.
With `Cc1cc(=O)[nH]c(CNC(=O)Cc2ccccc2)n1`, the TGI in [1], in [2], in assay [3], in assay [4], in [5] and in [6] was greater than 100 µM each time. Further, the TGI in assay [9] and in assay [8] was greater than 100 µM throughout.
On to `CCOc1ccc(NC(=O)CCC(=O)NN)cc1`, for which the TGI in [1], in assay [2], in assay [3], in assay [4], in assay [5] and in assay [6] was greater than 100 µM in each case. The TGI in [7] and in [9] was greater than 100 µM in each case.
As for `O=[N+]([O-])c1cc(/C=N/NS(=O)(=O)c2ccc(F)cc2)c(O)c([N+](=O)[O-])c1`, the TGI in assay [1] is 34.5 µM; in assay [2], 67.3 µM; in assay [3], greater than 100 µM; in assay [4] it was greater than 100 µM; in assay [5], 68 µM; in [6] it was 57.4 µM. Moreover, the TGI was 72 µM in assay [7], greater than 100 µM in assay [9] and greater than 100 µM in assay [8].
As for `CC(C)(C)C[P+](C)(C)c1ccccc1`, the TGI in assay [1], in [2], in assay [3], in [4], in assay [5] and in assay [6] was greater than 100 µM in each case. The TGI in assay [7], in assay [9] and in [8] was greater than 100 µM each time.
With `CCc1oc2ccc(OC)c3c2c1C=CC=C3`, the TGI in [1], in assay [2], in [3], in [4], in assay [5] and in [6] was greater than 100 µM throughout. In addition, the TGI in assay [7], in assay [9] and in assay [8] was greater than 100 µM in each case.
For the compound `CC(C)[O-].CC(C)[O-].[O-]c1cccc2cccnc12.[O-]c1cccc2cccnc12.[Ti+4]`, the GI50 is 24.7 µM in assay [1]; 2.24 µM in [2]; greater than 100 µM in [3]; 25.7 µM in assay [4]; 15.4 µM in assay [5]; 25.2 µM in assay [7]. Besides, the GI50 in assay [8] is 28.5 µM. For the same compound, the TGI in assay [1], in [3], in assay [4], in [5], in assay [6] and in assay [9] was greater than 100 µM throughout. The compound also gave a TGI in assay [8] greater than 100 µM.
In the case of `CP(C)C.[Ag][I]`, the TGI in [1], in assay [2], in [3], in assay [4], in assay [5] and in assay [6] was greater than 100 µM each time. The TGI is 46.4 µM in assay [7], greater than 100 µM in assay [9] and greater than 100 µM in assay [8].
`N#C/C(=C\c1ccc(O)cc1O)C(N)=O`: the TGI was 26.5 µM in assay [1]; greater than 100 µM in assay [2]; greater than 100 µM in [3]; greater than 100 µM in assay [4]; greater than 100 µM in assay [5]; greater than 100 µM in [6]. For the same compound, the TGI in [9] and in [8] was greater than 100 µM throughout.
For the compound `CCC[CH2][Sn]1([CH2]CCC)[O]C(=O)c2cc(C)ccc2[O]1`, the GI50 is 0.46 µM in assay [1]; 0.164 µM in [2]; 0.112 µM in [4]; 0.614 µM in assay [5]; 0.725 µM in assay [6]; 0.854 µM in [7]. Further, the figures for the GI50 in assay [9] and in [8] were 0.419 µM and 0.465 µM, respectively. Further, the TGI in [1] was found to be 1.5 µM; in [2], 0.444 µM; in assay [4], 0.938 µM; in assay [5], 1.91 µM; in assay [6], 2.05 µM; in assay [7] it was 2.11 µM. Also, the TGI in [9] and in [8] was 1.56 µM in each case.
Turning to `Oc1[nH]c2ccc(Cl)cc2c1/C=c1/ccc2c(c1)N=C(c1cc(F)cc(F)c1)N=2`, the GI50 in assay [1] was 4.28 µM; in [2], 3.39 µM; in assay [3] it was 3.77 µM; in assay [4], 57.5 µM; in assay [5], 2.26 µM; in assay [7], 4.07 µM. Moreover, the GI50 in [8] is 3.43 µM. Further, the TGI in assay [1] is greater than 100 µM; in assay [2] it was 7.23 µM; in [3], 45 µM; in [4], greater than 100 µM; in assay [5] it was 5.73 µM; in [7], greater than 100 µM. The same compound registered a TGI in assay [8] greater than 100 µM.
Take `CO[C@@]12CC(=O)/C(=C(O)\C=C\c3ccccc3)C(=O)[C@]1(OC)Cc1ccccc1O2`: the TGI is greater than 100 µM in assay [1]; 51.7 µM in assay [3]; greater than 100 µM in assay [4]; 55.9 µM in [5]; 77.3 µM in assay [6]; greater than 100 µM in assay [7]. Besides, the figures for the TGI in assay [9] and in assay [8] were greater than 100 µM and 52.3 µM, respectively.
As to `Nn1c(N=Nc2c(O)[nH]c3ccccc23)n[nH]c1=S`, the TGI in assay [1], in assay [2], in assay [3], in assay [4], in assay [5] and in assay [6] was greater than 100 µM throughout. Moreover, the TGI in assay [9] and in assay [8] was greater than 100 µM throughout.
`C[C@]12CCCC(=O)C1C[C@H](C(=O)O)CC2` (some centres not stated): the TGI in assay [1], in assay [2], in [3], in assay [4], in assay [5] and in assay [6] was greater than 100 µM throughout. The TGI in assay [9] and in assay [8] was greater than 100 µM in each case.
Turning to `NNC(=S)N/N=C/C(Cl)=C(\Cl)C(=O)O`, the TGI in assay [2], in assay [4], in [5], in assay [6], in assay [7] and in assay [9] was greater than 100 µM in each case. In addition, the TGI in assay [8] was greater than 100 µM.
